From the supplement of paper PMC10307832

How the values were obtained:
Assay in all cases: relative viability (nuclei count vs DMSO), 5 days (fraction); higher = more cells survive
[1] = tested on: EMC-BAC-2
Summary of the method: (§1)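 One day after seeding in 1536-well plates, lung cancer cell lines were dosed by pin tool. Dosing was either single-drug or a fixed anchor-drug dose plus five library-drug doses (not always all listed) in √10 steps. After 5 days, nuclei were stained in one fix-and-stain step and counted on 4× images, and relative viability is the nuclei count of treated wells over that of vehicle wells, given as the median of duplicate plates.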

[2] = tested on: RERF-LC-KJ
Summary of the method: as §1

[3] = tested on: NCI-H2126
Summary of the method: as §1

[4] = tested on: NCI-H3122
Summary of the method: as §1

[5] = tested on: EPLC-272H
Summary of the method: as §1

[6] = tested on: NCI-H1563
Summary of the method: as §1

[7] = tested on: LOU-NH91
Summary of the method: as §1

[8] = tested on: SW 1573
Summary of the method: as §1

[9] = tested on: NCI-H1666
Summary of the method: as §1

[10] = tested on: HCC-78
Summary of the method: as §1

[11] = tested on: LXF-289
Summary of the method: as §1

[12] = tested on: SW 900
Summary of the method: as §1

[13] = tested on: LCLC-103H
Summary of the method: as §1

[14] = tested on: HCC-366
Summary of the method: as §1

[15] = tested on: HCC-827
Summary of the method: as §1

[16] = tested on: NCI-H2085
Summary of the method: as §1

[17] = tested on: ChaGo-K-1
Summary of the method: as §1

[18] = tested on: NCI-H2405
Summary of the method: as §1

[19] = tested on: NCI-H23
Summary of the method: as §1

[20] = tested on: LU99A
Summary of the method: as §1

[21] = tested on: LK-2
Summary of the method: as §1

[22] = tested on: NCI-H1975
Summary of the method: as §1

[23] = tested on: SK-LU-1
Summary of the method: as §1

## CC(C)Oc1cc(Nc2nc(N[C@@H](C)c3ccc(F)cn3)ncc2Cl)n[nH]1 [AZ23] + COc1cc2c(Oc3ccc(NC(=O)C4(C(=O)Nc5ccc(F)cc5)CC4)cc3F)ccnc2cc1OCCCN1CCOCC1 [Foretinib] (partner 0.25 µM)
[1]; first compound 0.01 µM
  relative viability: 1.12
[1]; first compound 0.03162 µM
  relative viability: 1.06
[1]; first compound 0.3162 µM
  relative viability: 0.989
[2]; first compound 0.01 µM
  relative viability: 1.09
[2]; first compound 0.03162 µM
  relative viability: 0.877
[2]; first compound 0.3162 µM
  relative viability: 0.852
[3]; first compound 0.01 µM
  relative viability: 1.05
[3]; first compound 0.03162 µM
  relative viability: 1.21
[3]; first compound 0.3162 µM
  relative viability: 1.19
[4]; first compound 0.01 µM
  relative viability: 1.15
[4]; first compound 0.03162 µM
  relative viability: 0.918
[4]; first compound 0.3162 µM
  relative viability: 0.981
[5]; first compound 0.01 µM
  relative viability: 0.77
[5]; first compound 0.03162 µM
  relative viability: 0.74
[5]; first compound 0.3162 µM
  relative viability: 0.676
[6]; first compound 0.01 µM
  relative viability: 0.922
[6]; first compound 0.03162 µM
  relative viability: 1.01
[6]; first compound 0.3162 µM
  relative viability: 0.993
[7]; first compound 0.01 µM
  relative viability: 0.941
[7]; first compound 0.03162 µM
  relative viability: 0.975
[7]; first compound 0.3162 µM
  relative viability: 0.927
[8]; first compound 0.01 µM
  relative viability: 1.28
[8]; first compound 0.03162 µM
  relative viability: 1.1
[8]; first compound 0.3162 µM
  relative viability: 0.562
[9]; first compound 0.01 µM
  relative viability: 0.992
[9]; first compound 0.03162 µM
  relative viability: 1.05
[9]; first compound 0.3162 µM
  relative viability: 0.918
[10]; first compound 0.01 µM
  relative viability: 0.588
[10]; first compound 0.03162 µM
  relative viability: 0.52
[10]; first compound 0.3162 µM
  relative viability: 0.547
[11]; first compound 0.01 µM
  relative viability: 1.14
[11]; first compound 0.03162 µM
  relative viability: 0.977
[11]; first compound 0.3162 µM
  relative viability: 0.949
[12]; first compound 0.01 µM
  relative viability: 1.04
[12]; first compound 0.03162 µM
  relative viability: 0.844
[12]; first compound 0.3162 µM
  relative viability: 0.775
[13]; first compound 0.01 µM
  relative viability: 0.729
[13]; first compound 0.03162 µM
  relative viability: 0.817
[13]; first compound 0.3162 µM
  relative viability: 0.78
[14]; first compound 0.01 µM
  relative viability: 1.13
[14]; first compound 0.03162 µM
  relative viability: 0.995
[14]; first compound 0.3162 µM
  relative viability: 0.933
[15]; first compound 0.01 µM
  relative viability: 1.05
[15]; first compound 0.03162 µM
  relative viability: 1.09
[15]; first compound 0.3162 µM
  relative viability: 1.11
[16]; first compound 0.01 µM
  relative viability: 0.848
[16]; first compound 0.03162 µM
  relative viability: 1.22
[16]; first compound 0.3162 µM
  relative viability: 1.08
[17]; first compound 0.01 µM
  relative viability: 1.17
[17]; first compound 0.03162 µM
  relative viability: 0.906
[17]; first compound 0.3162 µM
  relative viability: 0.95
[18]; first compound 0.01 µM
  relative viability: 1.04
[18]; first compound 0.03162 µM
  relative viability: 1.05
[18]; first compound 0.3162 µM
  relative viability: 1.04
[19]; first compound 0.03162 µM
  relative viability: 1.07
[19]; first compound 0.3162 µM
  relative viability: 0.596
[20]; first compound 0.01 µM
  relative viability: 0.799
[20]; first compound 0.03162 µM
  relative viability: 0.846
[20]; first compound 0.3162 µM
  relative viability: 0.872
[21]; first compound 0.01 µM
  relative viability: 1.15
[21]; first compound 0.03162 µM
  relative viability: 1.38
[21]; first compound 0.3162 µM
  relative viability: 0.706
[22]; first compound 0.01 µM
  relative viability: 1.05
[22]; first compound 0.03162 µM
  relative viability: 1.14
[22]; first compound 0.3162 µM
  relative viability: 0.99
[23]; first compound 0.03162 µM
  relative viability: 0.969
[23]; first compound 0.3162 µM
  relative viability: 0.821

## CC(C)Oc1cc(Nc2nc(N[C@@H](C)c3ccc(F)cn3)ncc2Cl)n[nH]1 [AZ23] + Cc1nc(Nc2ncc(C(=O)Nc3c(C)cccc3Cl)s2)cc(N2CCN(CCO)CC2)n1 [Dasatinib] (partner 0.075 µM)
[1]; first compound 0.01 µM
  relative viability: 0.308
[1]; first compound 0.03162 µM
  relative viability: 0.381
[1]; first compound 0.3162 µM
  relative viability: 0.364
[2]; first compound 0.01 µM
  relative viability: 0.91
[2]; first compound 0.03162 µM
  relative viability: 0.948
[2]; first compound 0.3162 µM
  relative viability: 0.891
[3]; first compound 0.01 µM
  relative viability: 0.573
[3]; first compound 0.03162 µM
  relative viability: 0.715
[3]; first compound 0.3162 µM
  relative viability: 0.56
[4]; first compound 0.01 µM
  relative viability: 0.946
[4]; first compound 0.03162 µM
  relative viability: 0.831
[4]; first compound 0.3162 µM
  relative viability: 0.856
[5]; first compound 0.01 µM
  relative viability: 0.38
[5]; first compound 0.03162 µM
  relative viability: 0.305
[5]; first compound 0.3162 µM
  relative viability: 0.273
[6]; first compound 0.01 µM
  relative viability: 0.491
[6]; first compound 0.03162 µM
  relative viability: 0.533
[6]; first compound 0.3162 µM
  relative viability: 0.469
[7]; first compound 0.01 µM
  relative viability: 0.565
[7]; first compound 0.03162 µM
  relative viability: 0.589
[7]; first compound 0.3162 µM
  relative viability: 0.551
[8]; first compound 0.01 µM
  relative viability: 0.747
[8]; first compound 0.03162 µM
  relative viability: 0.605
[8]; first compound 0.3162 µM
  relative viability: 0.52
[9]; first compound 0.01 µM
  relative viability: 0.891
[9]; first compound 0.03162 µM
  relative viability: 0.927
[9]; first compound 0.3162 µM
  relative viability: 0.809
[10]; first compound 0.01 µM
  relative viability: 0.323
[10]; first compound 0.03162 µM
  relative viability: 0.381
[10]; first compound 0.3162 µM
  relative viability: 0.328
[11]; first compound 0.01 µM
  relative viability: 0.205
[11]; first compound 0.03162 µM
  relative viability: 0.275
[11]; first compound 0.3162 µM
  relative viability: 0.189
[12]; first compound 0.01 µM
  relative viability: 0.385
[12]; first compound 0.03162 µM
  relative viability: 0.593
[12]; first compound 0.3162 µM
  relative viability: 0.541
[13]; first compound 0.01 µM
  relative viability: 0.443
[13]; first compound 0.03162 µM
  relative viability: 0.576
[13]; first compound 0.3162 µM
  relative viability: 0.499
[14]; first compound 0.01 µM
  relative viability: 0.58
[14]; first compound 0.03162 µM
  relative viability: 0.705
[14]; first compound 0.3162 µM
  relative viability: 0.79
[15]; first compound 0.01 µM
  relative viability: 0.301
[15]; first compound 0.03162 µM
  relative viability: 0.288
[15]; first compound 0.3162 µM
  relative viability: 0.282
[16]; first compound 0.01 µM
  relative viability: 0.232
[16]; first compound 0.03162 µM
  relative viability: 0.214
[16]; first compound 0.3162 µM
  relative viability: 0.199
[17]; first compound 0.01 µM
  relative viability: 0.687
[17]; first compound 0.03162 µM
  relative viability: 0.627
[17]; first compound 0.3162 µM
  relative viability: 0.566
[18]; first compound 0.01 µM
  relative viability: 0.225
[18]; first compound 0.03162 µM
  relative viability: 0.23
[18]; first compound 0.3162 µM
  relative viability: 0.215
[19]; first compound 0.03162 µM
  relative viability: 0.883
[19]; first compound 0.3162 µM
  relative viability: 0.761
[20]; first compound 0.01 µM
  relative viability: 0.623
[20]; first compound 0.03162 µM
  relative viability: 0.646
[20]; first compound 0.3162 µM
  relative viability: 0.369
[21]; first compound 0.01 µM
  relative viability: 0.262
[21]; first compound 0.03162 µM
  relative viability: 0.286
[21]; first compound 0.3162 µM
  relative viability: 0.335
[22]; first compound 0.01 µM
  relative viability: 0.453
[22]; first compound 0.03162 µM
  relative viability: 0.405
[22]; first compound 0.3162 µM
  relative viability: 0.326
[23]; first compound 0.03162 µM
  relative viability: 0.193
[23]; first compound 0.3162 µM
  relative viability: 0.152
